Laboratory results as given in patent publication US20090163561A1, “AMORPHOUS METAXALONE AND AMORPHOUS DISPERSIONS THEREOF” (URL Pharma, Inc., priority 2007, published 2009).
Like-named read-outs stand apart in the source and are kept apart here.

Key:
[1] = pH ˜1.5; cited from earlier work
[2] = Moisture balance (moisture sorption-desorption analysis); assay type: physicochemical; settings: for post-MB XRPD form: after moisture balance
Description: FIG. 6. Moisture sorption-desorption analysis of metaxalone Form A. FIG. 10. Moisture sorption-desorption analysis of metaxalone Form B.

[3] = Storage stability of solid amorphous metaxalone; assay type: physicochemical
Experimental: A glass vial containing metaxalone Form A was placed in a silicon oil bath at 155° C. Once the solids had melted, the vial was quickly cooled in a dry ice/acetone bath (about −78° C.). Glassy solids resulted.

SMILES | solubility at low pH [1] | MB (moisture balance) result [2] | post-MB XRPD form [2] | stability against conversion to a crystalline form when stored [3] | stability against conversion to a crystalline form when stored ([3]; listed as solid amorphous metaxalone)
Cc1cc(C)cc(OCC2CNC(=O)O2)c1 (stereo not shown) [Crystalline metaxalone, 5-(3′,5′-dimethylphenoxy)methyl-2-oxazolidinone] | insoluble | – | – | – | –
Cc1cc(C)cc(OCC2CNC(=O)O2)c1 (stereo not shown) [Metaxalone Form A, 5-(3′,5′-dimethylphenoxy)methyl-2-oxazolidinone] | – | nonhygroscopic solid | Form A | – | –
Cc1cc(C)cc(OCC2CNC(=O)O2)c1 (stereo not shown) [Metaxalone Form B, 5-(3′,5′-dimethylphenoxy)methyl-2-oxazolidinone] | – | non-hygroscopic | Form B | – | –
Cc1cc(C)cc(OCC2CNC(=O)O2)c1 (stereo not shown) [Solid Amorphous Metaxalone, 5-(3′,5′-dimethylphenoxy)methyl-2-oxazolidinone] | – | – | – | produce crystalline material | not stable
